From patent publication US20170158697A1, “Protein Kinase Inhibitors” (Pharmascience Inc., priority 2013, published 2017)

Key:
[1] = tested on: splenocytes from CD1 mice; assay: Splenic cell proliferation assay (anti-IgM stimulated, Cell Titer-Glo); type: cell-based; settings: Splenocyte; mouse splenocytes, 2.5 ug/ml anti-IgM F(ab')2 for 72 h; read-out: Inhibition of splenic cell proliferation, EC50
Procedure: Splenic Cell Proliferation Assay
Proliferation of splenocytes in response to anti-IgM can be blocked by inhibition of Btk. Splenocytes were obtained from 6 week old male CD1 mice (Charles River Laboratories Inc.). Mouse spleens were manually disrupted in PBS and filtered using a 70 um cell strainer followed by ammonium chloride red blood cell lysis. Cells were washed, resuspended in Splenocyte Medium (HyClone RPMI supplemented with 10% heat-inactivated FBS, 0.5× non-essential amino acids, 10 mM HEPES, 50 uM beta mercaptoethanol) and incubated at 37° C., 5% CO2 for 2 h to remove adherent cells. Suspension cells were seeded in 96 well plates at 50,000 cells per well and incubated at 37° C., 5% CO2 for 1 h. Splenocytes were pre-treated in triplicate with 10,000 nM curves of Formula I compounds for 1 h, followed by stimulation of cell proliferation with 2.5 ug/ml anti-IgM F(ab′)2 (Jackson ImmunoResearch) for 72 h. Cell proliferation was measured by Cell Titer-Glo Luminescent Assay (Promega). EC50 values (50% proliferation in the presence of compound as compared to vehicle treated controls) were calculated from dose response compound curves using GraphPad Prism Software.

[2] = target: T1, histidine tagged recombinant human full-length Bruton Agammaglobulinemia Tyrosine Kinase (Btk) (Homo sapiens, UniProt Q06187); assay: Btk kinase inhibition assay, Method A (fluorescence polarization, KinEASE FP Fluorescein Green); type: biochemical; settings: 10 μM ATP, 250 μM substrate, 60 minutes, Ki by Cheng-Prusoff from IC50, read-out: Inhibition of Btk, EC50 (nM) (legend: Ki)
T1 construct: histidine tagged recombinant human full-length Bruton Agammaglobulinemia Tyrosine Kinase (Btk); His tag
Procedure: Fluorescence polarization-based kinase assays were performed in 384 well-plate format using histidine tagged recombinant human full-length Bruton Agammaglobulinemia Tyrosine Kinase (Btk) and a modified protocol of the KinEASE™ FP Fluorescein Green Assay supplied from Millipore®. Kinase reaction were performed at room temperature for 60 minutes in presence of 250 μM substrate, 10 μM ATP and variable test article concentrations. The reaction was stopped with EDTA/kinease detection reagents. Phosphorylation of the substrate peptide was detected by fluorescence polarization measured with a Tecan 500 instrument. From the dose-response curve obtained, the IC50 was calculated using Graph Pad Prisms® using a non linear fit curve. The Km for ATP on each enzyme was experimentally determined and the Ki values calculated using the Cheng-Prusoff equation (see: Cheng Y, Prusoff W. H. (1973) Relationship between the inhibition constant (K1) and the concentration of inhibitor which causes 50% inhibition (I50) of an enzymatic reaction”. Biochem Pharmacol 22 (23): 3099-108). ki values are reported in Tables 2a and 2b: […]

[3] = target: T2, human BTK kinase (hBTK) (Homo sapiens, UniProt Q06187); assay: Btk kinase inhibition assay, Method B (KinaseProfiler radiometric protein kinase assay, Eurofins); type: biochemical; settings: 40 minutes, 250 μM substrate
T2 construct: purchased Eurofins Pharma Discovery Services UK Limited (assay service)
Procedure: In vitro potency of selected compound was defined against human BTK kinase (hBTK) using KinaseProfiler radiometric protein kinase assays performed at Eurofins Pharma Discovery Services UK Limited.
hBTK kinase is diluted in buffer and all compounds were prepared to 50× final assay concentration in 100% DMSO. This working stock of the compound was added to the assay well as the first component in the reaction, followed by the remaining components as detailed in the assay protocol listed above. The reaction was initiated by the addition of the MgATP mix. The kinase reaction was performed at room temperature for 40 minutes in presence of 250 μM substrate, 10 mM MgAcetate, [γ-33P-ATP] (specific activity approx. 500 cpm/pmol, concentration as required) and variable test article concentrations. The ATP concentrations in the assays were with 15 μM of the apparent. The reaction was stopped by the addition of 3% phosphoric acid solution. 10 μL of the reaction is then spotted onto a P30 filtermat and washed three times for 5 minutes in 75 mM phosphoric acid and once in methanol prior to drying and scintillation counting. In addition positive control wells contain all components of the reaction, except the compound of interest; however, DMSO (at a final concentration of 2%) were included in these wells to control for solvent effects as well as blank wells contain all components of the reaction, with a reference inhibitor replacing the compound of interest. This abolishes kinase activity and establishes the base-line (0% kinase activity remaining). The potency of each compound was reported by estimating the EC50.

T1 sequence (Q06187 whole entry): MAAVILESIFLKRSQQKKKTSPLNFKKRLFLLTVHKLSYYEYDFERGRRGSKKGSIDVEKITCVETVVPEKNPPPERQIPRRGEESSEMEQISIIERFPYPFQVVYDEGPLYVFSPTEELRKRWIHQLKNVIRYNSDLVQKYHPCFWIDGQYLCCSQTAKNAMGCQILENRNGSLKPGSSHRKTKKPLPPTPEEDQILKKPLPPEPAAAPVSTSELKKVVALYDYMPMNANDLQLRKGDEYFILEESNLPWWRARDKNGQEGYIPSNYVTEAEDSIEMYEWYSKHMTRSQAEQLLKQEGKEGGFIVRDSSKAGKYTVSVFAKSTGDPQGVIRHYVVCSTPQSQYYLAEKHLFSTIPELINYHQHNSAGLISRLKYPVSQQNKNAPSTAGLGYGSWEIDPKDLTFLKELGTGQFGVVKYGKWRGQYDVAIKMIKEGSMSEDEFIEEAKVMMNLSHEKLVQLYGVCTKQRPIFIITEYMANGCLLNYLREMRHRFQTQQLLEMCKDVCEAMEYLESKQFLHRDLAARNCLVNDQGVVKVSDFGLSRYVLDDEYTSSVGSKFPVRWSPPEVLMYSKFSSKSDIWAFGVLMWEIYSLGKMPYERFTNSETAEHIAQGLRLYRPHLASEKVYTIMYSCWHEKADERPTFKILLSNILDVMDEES
T2 sequence (Q06187 whole entry): as above

Structure (SMILES)	EC50 [1]	Ki [2]	EC50 [3]
Cc1ncc(COc2cc(F)cc(Oc3ccc(-c4cn(C(C)C)c5ncnc(N)c45)cc3)c2)s1 [Compound 1]	< 100 nM	< 100 nM	–
Cc1ccc(COc2cc(F)cc(Oc3ccc(-c4cn(C(C)C)c5ncnc(N)c45)cc3)c2)cn1 [Compound 2]	< 100 nM	< 100 nM	–
Cc1ncc(COc2cc(F)cc(Oc3ccc(-c4cn(C(C)C)c5ncnc(N)c45)cc3)c2)cn1 [Compound 3]	< 100 nM	< 100 nM	–
Cc1ccc(COc2cc(F)cc(Oc3ccc(-c4cn(C5CCOCC5)c5ncnc(N)c45)cc3)c2)cn1 [Compound 4]	< 100 nM	< 100 nM	–
Cc1ncc(COc2cc(F)cc(Oc3ccc(-c4cn(C5CCOCC5)c5ncnc(N)c45)cc3)c2)s1 [Compound 5]	< 100 nM	< 100 nM	–
Cc1ncc(COc2cc(F)cc(Oc3ccc(-c4cn(C5CCOCC5)c5ncnc(N)c45)cc3)c2)cn1 [Compound 6]	< 100 nM	< 100 nM	–
Cc1ncc(COc2cc(F)cc(Oc3ccc(-c4cn(C[C@@H]5CCCN5)c5ncnc(N)c45)cc3)c2)s1 [Compound 7]	100 to 1000 nM	< 100 nM	–
Cc1ncc(COc2cc(F)cc(Oc3ccc(-c4cn(C[C@@H]5CCCN5)c5ncnc(N)c45)cc3)c2)cn1 [Compound 8]	100 to 1000 nM	< 100 nM	–
CC(C)n1cc(-c2ccc(Oc3cc(F)cc(OCc4ccccc4)c3)cc2)c2c(N)ncnc21 [Compound 9]	100 to 1000 nM	< 100 nM	–
Cc1ncc(COc2cc(F)cc(Oc3ccc(-c4cn(C[C@H]5CCCN5)c5ncnc(N)c45)cc3)c2)cn1 [Compound 10]	100 to 1000 nM	100 to 1000 nM	–
Cc1ncc(COc2ccc(F)c(Oc3ccc(-c4cn(C(C)C)c5ncnc(N)c45)cc3)c2)cn1 [Compound 11]	100 to 1000 nM	< 100 nM	–
CCCc1ncc(COc2cc(F)cc(Oc3ccc(-c4cn(C(C)C)c5ncnc(N)c45)cc3)c2)cn1 [Compound 12]	100 to 1000 nM	< 100 nM	–
CC(C)c1ncc(COc2cc(F)cc(Oc3ccc(-c4cn(C(C)C)c5ncnc(N)c45)cc3)c2)cn1 [Compound 13]	100 to 1000 nM	< 100 nM	–
CC(C)n1cc(-c2ccc(Oc3cc(F)cc(OCc4cnc(C5CC5)nc4)c3)cc2)c2c(N)ncnc21 [Compound 14]	100 to 1000 nM	< 100 nM	–
Cc1ncc(COc2cc(Oc3ccc(-c4cn(C(C)C)c5ncnc(N)c45)cc3)ccc2F)cn1 [Compound 15]	100 to 1000 nM	100 to 1000 nM	–
CC(C)n1cc(-c2ccc(Oc3cc(F)cc(OCc4cncnc4)c3)cc2)c2c(N)ncnc21 [Compound 17]	< 100 nM	< 100 nM	–
Cc1ncc(COc2cc(F)cc(Oc3ccc(-c4cn([C@H]5C[C@@](C)(O)C5)c5ncnc(N)c45)cc3)c2)cn1 [Compound 18]	< 100 nM	< 100 nM	–
Cc1ncc(COc2cccc(Oc3ccc(-c4cn(C(C)C)c5ncnc(N)c45)cc3)c2F)cn1 [Compound 19]	< 100 nM	–	< 100 nM
CC(C)n1cc(-c2ccc(Oc3cc(F)cc(OCc4cnc(CO)nc4)c3)cc2)c2c(N)ncnc21 [Compound 20]	100 to 1000 nM	–	< 100 nM
CC(C)n1cc(-c2ccc(Oc3cc(F)cc(OCc4ccc(CO)nc4)c3)cc2)c2c(N)ncnc21 [Compound 21]	< 100 nM	–	< 100 nM
CC(=O)N1CCC[C@@H]1Cn1cc(-c2ccc(Oc3cc(F)cc(OCc4cnc(C)nc4)c3)cc2)c2c(N)ncnc21 [Compound 22]	100 to 1000 nM	–	< 100 nM
Cc1ncc(COc2cc(F)cc(Oc3ccc(-c4cn([C@H]5C[C@@H](N6CCOCC6)C5)c5ncnc(N)c45)cc3)c2)cn1 [Compound 23]	< 100 nM	< 100 nM	–
Cc1ncc(COc2cc(F)cc(Oc3ccc(-c4cn(C(C)(C)CO)c5ncnc(N)c45)cc3)c2)cn1 [Compound 24]	< 100 nM	–	100 to 1000 nM
CC(=O)N1CCC[C@@H](n2cc(-c3ccc(Oc4cc(F)cc(OCc5cnc(C)nc5)c4)cc3)c3c(N)ncnc32)C1 [Compound 25]	< 100 nM	–	< 100 nM
Cc1ncc(COc2cc(F)cc(Oc3ccc(-c4cn([C@H]5C[C@@H](O)C5)c5ncnc(N)c45)cc3)c2)cn1 [Compound 26]	< 100 nM	–	< 100 nM
